Literature values, collected in publication PMC6359455, “Partial Solvation Parameters of Drugs as a New Thermodynamic Tool for Pharmaceutics” (Pharmaceutics, 2019).

Parameters: method as in doi:10.1021/acs.iecr.7b02286; Vx (McGowan volume LSER descriptor): unit not given here
Conditions: common solvents; cited from earlier work

Row | Structure (SMILES) | E (excess refractivity LSER descriptor) | S (polarity LSER descriptor) | Vx (McGowan volume LSER descriptor) | A (acidity LSER descriptor) | B (basicity LSER descriptor)
1 | CCCO [1-Propanol] | 0.240 | 0.420 | 0.590 | – | –
2 | CCCCCC [n-Hexane] | – | – | 0.954 | – | –
3 | CCCCCCCCO [1-Octanol] | 0.200 | 0.421 | 1.295 | 0.370 | 0.480
4 | OC1CCCCC1 [Cyclohexanol] | 0.461 | 0.557 | 0.904 | 0.320 | 0.570
5 | CC(C)=O [Acetone] | 0.180 | 0.703 | 0.547 | – | 0.493
6 | CCC(C)=O [Methyl ethyl ketone] | 0.170 | 0.697 | 0.688 | – | 0.510
7 | O [Water] | 0.000 | 0.450 | 0.167 | 0.820 | 0.350
8 | C1CCCCC1 [Cyclohexane] | 0.310 | 0.010 | 0.845 | – | –
9 | CO [Methanol] | 0.280 | 0.439 | 0.308 | 0.430 | 0.470
10 | CCCCCCCCCC [n-Decane] | – | – | 1.518 | – | –
11 | CCCCO [1-Butanol] | 0.220 | 0.420 | 0.731 | – | –
12 | c1ccccc1 [Benzene] | 0.610 | 0.520 | 0.716 | – | –
13 | ClC(Cl)Cl [Chloroform] | 0.430 | 0.490 | 0.617 | 0.150 | –
14 | CCO [Ethanol] | 0.250 | 0.419 | 0.449 | 0.370 | 0.480
15 | CCCCCCC [n-Heptane] | – | – | 1.095 | – | –
16 | C1CCOC1 [Tetrahydrofuran] | 0.291 | 0.524 | 0.622 | – | 0.479
17 | OCCO [Ethylene glycol] | 0.400 | 0.900 | 0.508 | 0.580 | 0.780
18 | CCC(C)O (stereo not shown) [2-Butanol] | 0.220 | 0.360 | 0.731 | 0.330 | 0.560
19 | CC(C)O [Isopropanol] | 0.210 | 0.366 | 0.590 | 0.330 | 0.560
20 | Cc1ccccc1 [Toluene] | 0.600 | 0.520 | 0.857 | – | –
21 | CCOC(C)=O [Ethyl acetate] | 0.110 | 0.618 | 0.747 | – | 0.450
22 | CCc1ccccc1 [Ethylbenzene] | – | 0.510 | – | – | –
23 | ClC(Cl)(Cl)Cl [Carbon tetrachloride] | 0.460 | 0.380 | 0.739 | – | –
24 | ClCCl [Dichloromethane] | 0.390 | 0.574 | 0.494 | 0.100 | –
25 | C1COCCO1 [1,4-Dioxane] | 0.330 | 0.744 | 0.681 | – | 0.635
26 | CCCCOC(C)=O [n-Butyl acetate] | 0.071 | 0.597 | 1.028 | – | 0.449
27 | CCCCCCCCC [n-Nonane] | – | – | 1.377 | – | –
28 | Oc1ccccc1 [Phenol] | 0.808 | 0.890 | 0.775 | 0.600 | 0.300
29 | CCCCCCCC [n-Octane] | – | – | 1.236 | – | –
30 | CC#N [Acetonitrile] | 0.241 | 0.900 | 0.404 | 0.040 | 0.330
